Legend:
[1] = molecular target: T1, human MAO-B (Homo sapiens, UniProt P27338); test: Amplex Red monoamine oxidase assay, MAO-B; type: biochemical; conditions: human recombinant MAO-B; read-out: MAO-B IC50 ± SEM
T1 construct: purchased Sigma Aldrich M7441
T1 sequence (P27338 1-520): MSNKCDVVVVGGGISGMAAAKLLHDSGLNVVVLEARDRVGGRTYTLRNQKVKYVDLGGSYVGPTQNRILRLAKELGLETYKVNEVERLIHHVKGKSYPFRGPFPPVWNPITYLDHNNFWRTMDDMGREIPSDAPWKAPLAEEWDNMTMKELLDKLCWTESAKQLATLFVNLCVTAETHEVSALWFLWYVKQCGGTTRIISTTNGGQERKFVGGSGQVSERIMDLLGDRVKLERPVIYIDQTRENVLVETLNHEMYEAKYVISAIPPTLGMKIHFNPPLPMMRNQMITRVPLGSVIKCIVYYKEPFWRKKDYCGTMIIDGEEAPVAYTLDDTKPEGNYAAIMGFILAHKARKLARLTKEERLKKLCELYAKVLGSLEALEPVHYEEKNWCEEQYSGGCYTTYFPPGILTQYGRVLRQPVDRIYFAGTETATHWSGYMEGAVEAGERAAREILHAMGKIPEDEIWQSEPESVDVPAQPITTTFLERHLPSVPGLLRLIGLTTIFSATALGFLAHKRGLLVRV

[2] = molecular target: T2, human A2B (hA2B) ARs (Homo sapiens, UniProt P29275); test: Radioligand binding [3H]PSB-603, CHO cell membranes; conditions: for Ki: CHO cell membranes, read-out: hA2B [3H]PSB-603 Ki ± SEM; for inhibition at 1 µM: read-out: hA2B [3H]PSB-603 % inhibition ± SEM at 1 µM
T2 construct: expressed in transfected cells; host or cells: CHO cells (membranes)
T2 sequence (P29275 1-332): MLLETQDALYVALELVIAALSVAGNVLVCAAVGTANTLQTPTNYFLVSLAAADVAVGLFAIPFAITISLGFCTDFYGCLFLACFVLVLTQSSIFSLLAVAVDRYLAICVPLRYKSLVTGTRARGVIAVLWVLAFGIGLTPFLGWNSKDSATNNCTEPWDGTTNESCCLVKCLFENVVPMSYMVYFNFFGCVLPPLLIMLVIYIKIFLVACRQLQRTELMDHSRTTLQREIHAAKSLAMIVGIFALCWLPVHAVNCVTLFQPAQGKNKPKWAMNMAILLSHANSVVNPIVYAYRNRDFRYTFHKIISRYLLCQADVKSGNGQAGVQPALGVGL
Protocol: The final compounds were tested in radioligand binding assays to evaluate their affinity for all four ARs subtypes (see Table 2). Rat brain cortical membrane preparations were used as a source of rat A1 (rA1) ARs, and rat brain striatal membrane preparations served as a source of rat A2A (rA2A) ARs. For A2B- and A3AR assays, membrane preparations of Chinese hamster ovary (CHO) cells recombinantly expressing either human A2B (hA2B) or human A3 (hA3) ARs were employed.
Adenosine receptor radioligand binding assays were performed as previously described using rat brain cortical membrane preparations for A1 and rat brain striatal membrane preparations for A2A AR assays. Frozen rat brains (unstripped) were obtained from Pel Freez, Rogers, AR, USA. For assays at human AR subtypes, cell membranes of CHO cells recombinantly expressing the respective receptor were used. The following compounds were employed as radioligands: A1: [^3H]2-chloro-N^6-cyclopentyladenosine ([^3H]CCPA); A2A: [^3H]3-(3-hydroxypropyl)-7-methyl-8-(m-methoxystyryl)-1-propargylxanthine ([^3H]MSX-2); A2B: [^3H]8-(4-(4-(4-chlorophenyl)piperazine-1-sulfonyl)phenyl)-1-propylxanthine ([^3H]PSB-603); A3: [^3H]phenyl-8-ethyl-4-methyl-(8R)-4,5,7,8-tetrahydro-1H-imidazo[2,1-i]purine-5-one ([^3H]PSB-11). Initially, a single high concentration of compound was tested (1 µM). For potent compounds, full concentration–inhibition curves were determined using six to ten different concentrations of test compound spanning three orders of magnitude. At least three independent experiments were performed. Data were analyzed using GraphPad PRISM program version 4.0 or higher (Graph Pad, San Diego, CA, USA).

[3] = molecular target: T3, human PDE4B1 (Homo sapiens, UniProt Q07343); test: PDElight HTS cAMP phosphodiesterase assay, PDE4B1; type: biochemical; conditions: for IC50: read-out: PDE 4B1 IC50 ± SEM; for inhibition at 10 µM: read-out: PDE 4B1 % Inhibition ± SEM at 10 µM
T3 construct: purchased BPS Biosciences
Protocol: Further biological evaluation of the presented compound library was performed determining inhibitory potencies against selected human PDE isoforms, namely, PDE4 and PDE10 (for results see Table 3).
Tested and reference compounds were dissolved in dimethyl sulfoxide (DMSO) at a concentration of 10 mM and further diluted in assay buffer (10 mM Tris-HCl, 10 mM magnesium chloride and 0.05% Tween-20; pH 7.4). Inhibition of human PDE10A and 4B1 was measured using PDElight HTS cAMP phosphodiesterase assay kit (Lonza, Basel, Switzerland) according to manufacturer’s recommendations. Then, 10 ng of PDE10A and 5 ng of PDE4B1 (BPS Biosciences, San Diego, CA, USA) in appropriate buffer was incubated with reference and tested compound for 20 min. […] Then PDELight AMP Detection Reagent was added and incubated 10 min. All reactions were carried out at 37 °C in 96 white-walled, half-area-well plates (PerkinElmer). Luminescence was measured in a multifunction plate reader (POLARstar Omega, BMG Labtech, Ortenberg, Germany). The percentage of inhibition and IC50s were computed using GraphPad Prism Version 6.0 software.

T3 sequence (Q07343 whole entry): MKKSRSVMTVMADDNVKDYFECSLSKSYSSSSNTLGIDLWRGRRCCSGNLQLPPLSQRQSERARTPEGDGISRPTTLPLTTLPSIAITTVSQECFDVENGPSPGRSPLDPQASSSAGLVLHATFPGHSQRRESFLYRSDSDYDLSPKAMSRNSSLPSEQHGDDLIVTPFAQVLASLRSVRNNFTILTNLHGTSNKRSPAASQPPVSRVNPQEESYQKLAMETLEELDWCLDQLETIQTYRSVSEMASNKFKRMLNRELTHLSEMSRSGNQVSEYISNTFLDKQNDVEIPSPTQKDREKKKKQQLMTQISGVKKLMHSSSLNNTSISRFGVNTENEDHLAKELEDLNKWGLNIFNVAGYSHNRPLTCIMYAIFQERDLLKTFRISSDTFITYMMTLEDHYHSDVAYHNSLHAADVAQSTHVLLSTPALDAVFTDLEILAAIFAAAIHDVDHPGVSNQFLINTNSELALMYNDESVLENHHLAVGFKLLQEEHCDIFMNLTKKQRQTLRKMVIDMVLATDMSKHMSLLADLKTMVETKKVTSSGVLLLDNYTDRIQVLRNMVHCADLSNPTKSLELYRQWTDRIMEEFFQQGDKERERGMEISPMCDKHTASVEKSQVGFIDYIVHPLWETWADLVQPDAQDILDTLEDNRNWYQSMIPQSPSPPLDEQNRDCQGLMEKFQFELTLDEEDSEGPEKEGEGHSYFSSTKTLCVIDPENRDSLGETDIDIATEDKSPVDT

IC50 [1] [nM] | Ki [2] [nM] | inhibition at 1 µM [2] [%] | IC50 [3] [nM] | inhibition at 10 µM [3] [%] | Structure (SMILES)
58.3 ± 6.2 | > 1000 | 12 | 4430 ± 250 | – | CCCCCn1c(NCCc2ccc(O)c(O)c2)nc2c1c(=O)n(C)c(=O)n2C [Compound 11h, 8-((3,4-Dihydroxyphenethyl)amino)-1,3-dimethyl-7-pentyl-3,7-dihydro-1H-purine-2,6-dione]
45.6 ± 12.9 | > 1000 | 31 | 3290 ± 540 | – | Cn1c(=O)c2c(nc(NCCc3ccc(O)c(O)c3)n2Cc2ccccc2)n(C)c1=O [Compound 11j, 7-Benzyl-8-((3,4-dihydroxyphenethyl)amino)-1,3-dimethyl-3,7-dihydro-1H-purine-2,6-dione]
105 ± 23 | > 1000 | 34 | 14500 ± 480 | – | CCCn1c(=O)c2c(nc(NCCc3ccc(O)c(O)c3)n2CCC)n(CCC)c1=O [Compound 12, 8-((3,4-Dihydroxyphenethyl)amino)-1,3,7-tripropyl-3,7-dihydro-1H-purine-2,6-dione]
121 ± 23 | > 1000 | 13 | > 10000 | 44 | Cn1c(=O)c2c(nc3n2CCCN3CCc2ccc(O)c(O)c2)n(C)c1=O [Compound 20a, 9-(3,4-Dihydroxyphenethyl)-1,3-dimethyl-6,7,8,9-tetrahydropyrimido[2,1-f]purine-2,4(1H,3H)-dione]
76.4 ± 0.7 | > 1000 | 31 | > 10000 | 42 | CCCCCCn1c(NCCc2ccc(O)c(O)c2)nc2c1c(=O)n(C)c(=O)n2C [Compound 11i, 8-((3,4-Dihydroxyphenethyl)amino)-7-hexyl-1,3-dimethyl-3,7-dihydro-1H-purine-2,6-dione]
170 ± 30 | 175 ± 21 | – | > 10000 | 24 | CCCCn1c(=O)c2c(nc3n2CCCN3CCc2ccc(O)c(O)c2)n(CCCC)c1=O [Compound 22, 1,3-Dibutyl-9-(3,4-dihydroxyphenethyl)-6,7,8,9-tetrahydropyrimido[2,1-f]purine-2,4(1H,3H)-dione]
43.8 ± 16.2 | > 1000 | 14 | 3160 ± 530 | – | CCCCn1c(NCCc2ccc(O)c(O)c2)nc2c1c(=O)n(C)c(=O)n2C [Compound 11e, 7-Butyl-8-((3,4-dihydroxyphenethyl)amino)-1,3-dimethyl-3,7-dihydro-1H-purine-2,6-dione]
126 ± 49 | > 1000 | 13 | 2440 ± 800 | – | CC(C)n1c(NCCc2ccc(O)c(O)c2)nc2c1c(=O)n(C)c(=O)n2C [Compound 11d, 8-((3,4-Dihydroxyphenethyl)amino)-7-isopropyl-1,3-dimethyl-3,7-dihydro-1H-purine-2,6-dione]
50.7 ± 10 | > 1000 | 20 | 7850 ± 1850 | – | Cn1c(=O)c2c(nc(NCCc3ccc(O)c(O)c3)n2C)n(C)c1=O [Compound 11a, 8-((3,4-Dihydroxyphenethyl)amino)-1,3,7-trimethyl-3,7-dihydro-1H-purine-2,6-dione]
47.9 ± 8.4 | > 1000 | -2 | 2520 ± 140 | – | CCn1c(NCCc2ccc(O)c(O)c2)nc2c1c(=O)n(C)c(=O)n2C [Compound 11b, 8-((3,4-Dihydroxyphenethyl)amino)-7-ethyl-1,3-dimethyl-3,7-dihydro-1H-purine-2,6-dione]
73.5 ± 7.5 | > 1000 | -9 | 4400 ± 540 | – | Cn1c(=O)c2c(nc(NCCc3ccc(O)c(O)c3)n2CCc2ccccc2)n(C)c1=O [Compound 11k, 8-((3,4-Dihydroxyphenethyl)amino)-1,3-dimethyl-7-phenethyl-3,7-dihydro-1H-purine-2,6-dione]
197 ± 57 | > 1000 | -5 | 4410 ± 230 | – | CCC(C)n1c(NCCc2ccc(O)c(O)c2)nc2c1c(=O)n(C)c(=O)n2C (stereo not shown) [Compound 11g, 7-(Sec-butyl)-8-((3,4-dihydroxyphenethyl)amino)-1,3-dimethyl-3,7-dihydro-1H-purine-2,6-dione]
53.5 ± 18.2 | > 1000 | 22 | > 10000 | 20 | Cn1c(=O)c2c(nc(NCCc3ccc(O)c(O)c3)n2CCOc2ccccc2)n(C)c1=O [Compound 11l, 8-((3,4-Dihydroxyphenethyl)amino)-1,3-dimethyl-7-(2-phenoxyethyl)-3,7-dihydro-1H-purine-2,6-dione]
101 ± 21 | > 1000 | 6 | > 10000 | 45 | Cn1c(=O)c2c(nc3n2CCCCN3CCc2ccc(O)c(O)c2)n(C)c1=O [Compound 20b, 10-(3,4-Dihydroxyphenethyl)-1,3-dimethyl-7,8,9,10-tetrahydro-1H-[1, 3]diazepino[2,1-f]purine-2,4(3H,6H)-dione]
205 ± 23 | > 1000 | 1 | 3760 ± 160 | – | CC(C)Cn1c(NCCc2ccc(O)c(O)c2)nc2c1c(=O)n(C)c(=O)n2C [Compound 11f, 8-((3,4-Dihydroxyphenethyl)amino)-7-isobutyl-1,3-dimethyl-3,7-dihydro-1H-purine-2,6-dione]
165 ± 30 | > 1000 | 6 | 3320 ± 800 | – | CCCn1c(NCCc2ccc(O)c(O)c2)nc2c1c(=O)n(C)c(=O)n2C [Compound 11c, 8-((3,4-Dihydroxyphenethyl)amino)-1,3-dimethyl-7-propyl-3,7-dihydro-1H-purine-2,6-dione]
157 ± 39 | 371 ± 23 | – | 16500 ± 320 | – | CCCn1c(=O)c2c(nc3n2CCCN3CCc2ccc(O)c(O)c2)n(CCC)c1=O [Compound 21, 9-(3,4-Dihydroxyphenethyl)-1,3-dipropyl-6,7,8,9-tetrahydropyrimido[2,1-f]purine-2,4(1H,3H)-dione]

Structure (SMILES) | IC50 [1] [nM] | Ki [2] [nM] | inhibition at 1 µM [2] [%] | IC50 [3] [nM] | inhibition at 10 µM [3] [%]
CCCCn1c(=O)c2c(nc(NCCc3ccc(O)c(O)c3)n2CCC)n(CCCC)c1=O [Compound 13, 1,3-Dibutyl-8-((3,4-dihydroxyphenethyl)amino)-7-propyl-3,7-dihydro-1H-purine-2,6-dione] | 81.8 ± 19.7 | > 1000 | 31 | > 10000 | 28

Source: paper PMC10377586 (Biomolecules, 2023)
